{
  "source": "patent US12252481B2",
  "about": "“Anti-viral compounds” (Aligos Therapeutics, Inc., priority 2021, dated 2025)",
  "key": {"[1]": {"target": "T1, SARS-Cov-2 3CLpro (Severe acute respiratory syndrome coronavirus 2, UniProt P0DTD1)", "T1 construct": "3CLpro and HRV3C was added using a Multidrop Combi", "assay": "biochemical", "details": "3CLpro, 30 mins preincubation, SAMDI-MS; read-out: SARS-Cov-2 IC50 (class)"}, "[2]": {"target": "T2, HRV3C (Human rhinovirus 14, UniProt P03303)", "T2 construct": "3CLpro and HRV3C was added using a Multidrop Combi", "T2 sequence (P03303 1538-1719)": "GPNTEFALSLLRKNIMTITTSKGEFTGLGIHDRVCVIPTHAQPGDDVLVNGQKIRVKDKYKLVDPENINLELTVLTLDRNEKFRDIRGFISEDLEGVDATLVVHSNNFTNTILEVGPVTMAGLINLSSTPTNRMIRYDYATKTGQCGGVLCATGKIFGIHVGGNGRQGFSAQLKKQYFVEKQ", "assay": "biochemical", "set-up": "species or system HRV", "details": "HRV3C, 30 mins preincubation, SAMDI-MS; read-out: HRV IC50 (bound)"}, "[3]": {"system": "human beta-coronavirus OC43", "assay": "OC43 coronavirus antiviral assay in HeLa cells (cytopathic effect, cell-titer-glo)", "assay_type": "cell-based", "details": "Betacoronavirus 1, OC43, HeLa, 144 h, 6 days at 33° C., read-out: EC50 (class)"}, "[4]": {"system": "B.1.1.7 lineage SARS-CoV-2", "assay": "microbe, parasite or virus in culture", "assay_type": "cell-based", "details": "Severe acute respiratory syndrome coronavirus 2, 96 h; read-out: A549-dual_ACE2_TMPRSS2 (EC50)"}, "[5]": {"target": "T3, human cathepsin L (Homo sapiens, UniProt P07711)", "T3 construct": "purchased R&D Systems", "T3 sequence (P07711 114-333)": "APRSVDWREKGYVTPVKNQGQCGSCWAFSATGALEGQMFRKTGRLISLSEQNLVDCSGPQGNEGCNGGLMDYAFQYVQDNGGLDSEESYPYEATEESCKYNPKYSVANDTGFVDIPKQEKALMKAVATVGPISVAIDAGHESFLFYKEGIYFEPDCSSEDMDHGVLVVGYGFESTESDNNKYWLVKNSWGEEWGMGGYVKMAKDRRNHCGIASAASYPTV", "assay": "Cathepsin L assay (Z-FR-AMC fluorescence)", "assay_type": "biochemical", "details": "10 pM human cathepsin L, 30 mins preincubation, Z-FR-AMC 2 μM", "procedure": "For the cathepsin L assay, 10 pM of human cathepsin L (R&D Systems; Minneapolis, MN) was preincubated for 30 mins with test compounds. Reactions were initiated by the addition of a peptide substrate Z—FR-AMC (final concentration 2 μM, Anaspec; Fremont, CA). Fluorescence was measured at 2-minute intervals for 30 mins using a 355/460 excitation/emission filter module on an Envision plate reader (Perkin Elmer; Waltham, MA). The IC50 values were calculated for each assay by fitting the curves using a four-parameter equation in GraphPad Prism."}},
  "data": [
    {"molecule": "CC(C)(F)C(=O)N[C@H](C(=O)N1C[C@H]2[C@@H]([C@H]1C(=O)N[C@H](C#N)C[C@@H]1CCNC1=O)[C@H]1C=C[C@@H]2C1)C(C)(C)C", "note": "[Compound 74]", "values": [
      {"measurement": "IC50", "setting": "[1]", "value": "< 20", "unit": "nM"},
      {"measurement": "IC50", "setting": "[2]", "value": "> 10000", "unit": "nM"},
      {"measurement": "EC50", "setting": "[3]", "value": "< 100", "unit": "nM"},
      {"measurement": "EC50", "setting": "[4]", "value": "< 100", "unit": "nM"},
      {"measurement": "IC50", "setting": "[5]", "value": "≥ 10000", "unit": "nM"}
    ]},
    {"molecule": "CC(C)(C)[C@H](NC(=O)C(F)(F)F)C(=O)N1C[C@H]2[C@@H]([C@H]1C(=O)N[C@H](C#N)C[C@@H]1Oc3ccncc3NC1=O)[C@H]1C=C[C@@H]2C1", "note": "[Compound 109, (1S,3aR,4S,7R,7aS)-N-((S)-1-cyano-2-((S)-3-oxo-3,4-dihydro-2H-pyrido[4,3-b][1,4]oxazin-2-yl)ethyl)-2-((S)-3,3-dimethyl-2-(2,2,2-trifluoroacetamido)butanoyl)-2,3,3a,4,7,7a-hexahydro-1H-4,7-methanoisoindole-1-carboxamide]", "values": [
      {"measurement": "IC50", "setting": "[1]", "value": "< 20", "unit": "nM"},
      {"measurement": "IC50", "setting": "[2]", "value": "> 500", "unit": "nM"},
      {"measurement": "EC50", "setting": "[3]", "value": "< 100", "unit": "nM"},
      {"measurement": "EC50", "setting": "[4]", "value": "< 100", "unit": "nM"},
      {"measurement": "IC50", "setting": "[5]", "value": "≥ 10000", "unit": "nM"}
    ]},
    {"molecule": "COCC(C)(C)[C@H](NC(=O)C(F)(F)C(F)(F)F)C(=O)N1C[C@H]2[C@@H]([C@H]1C(=O)N[C@H](C#N)C[C@@H]1CCNC1=O)[C@H]1C=C[C@@H]2C1", "note": "[Compound 100, (1S,3aR,4S,7R,7aS)-N-((S)-1-cyano-2-((S)-2-oxopyrrolidin-3-yl)ethyl)-2-((S)-4-methoxy-3,3-dimethyl-2-(2,2,3,3,3-pentafluoropropanamido)butanoyl)-2,3,3a,4,7,7a-hexahydro-1H-4,7-methanoisoindole-1-carboxamide]", "values": [
      {"measurement": "IC50", "setting": "[1]", "value": "< 20", "unit": "nM"},
      {"measurement": "IC50", "setting": "[2]", "value": "> 500", "unit": "nM"},
      {"measurement": "EC50", "setting": "[3]", "value": "< 100", "unit": "nM"},
      {"measurement": "EC50", "setting": "[4]", "value": "< 100", "unit": "nM"},
      {"measurement": "IC50", "setting": "[5]", "value": "≥ 10000", "unit": "nM"}
    ]},
    {"molecule": "CC(C)(C)[C@H](NC(=O)C(F)(Cl)Cl)C(=O)N1C[C@@H]2[C@@H]3CC[C@@H](C3)[C@@H]2[C@H]1C(=O)N[C@H](C#N)C[C@@H]1CCNC1=O", "note": "[Compound 67, (1S,2S,3S,6R,7R)—N-[(1S)-1-cyano-2-[(3S)-2-oxopyrrolidin-3-yl]ethyl]-4-[(2S)-2-(2,2-dichloro-2-fluoroacetamido)-3,3-dimethylbutanoyl]-4-azatricyclo[5.2.1.0^{2,6}]decane-3-carboxamide]", "values": [
      {"measurement": "IC50", "setting": "[1]", "value": "< 20", "unit": "nM"},
      {"measurement": "IC50", "setting": "[2]", "value": "> 10000", "unit": "nM"},
      {"measurement": "EC50", "setting": "[3]", "value": "< 100", "unit": "nM"},
      {"measurement": "EC50", "setting": "[4]", "value": "< 100", "unit": "nM"},
      {"measurement": "IC50", "setting": "[5]", "value": "≥ 10000", "unit": "nM"}
    ]},
    {"molecule": "CC(C)(C)[C@H](NC(=O)C(F)(F)F)C(=O)N1C[C@@H]2[C@H]3CC[C@H](CC3)[C@@H]2[C@H]1C(=O)N[C@H](C#N)C[C@@H]1CCNC1=O", "note": "(mixture of isomers) [Compound 71]", "values": [
      {"measurement": "IC50", "setting": "[1]", "value": "< 20", "unit": "nM"},
      {"measurement": "IC50", "setting": "[2]", "value": "> 10000", "unit": "nM"},
      {"measurement": "EC50", "setting": "[3]", "value": "100 to 1000", "unit": "nM"},
      {"measurement": "EC50", "setting": "[4]", "value": "< 100", "unit": "nM"},
      {"measurement": "IC50", "setting": "[5]", "value": "≥ 10000", "unit": "nM"}
    ]},
    {"molecule": "CC(C)(C)[C@H](NC(=O)C(F)F)C(=O)N1C[C@H]2[C@@H]([C@H]1C(=O)N[C@H](C#N)C[C@@H]1CCNC1=O)[C@H]1C=C[C@@H]2C1", "note": "[Compound 72, (1S,3aR,4S,7R,7aS)-N-((S)-1-cyano-2-((S)-2-oxopyrrolidin-3-yl)ethyl)-2-((S)-2-(2,2-difluoroacetamido)-3,3-dimethylbutanoyl)-2,3,3a,4,7,7a-hexahydro-1H-4,7-methanoisoindole-1-carboxamide]", "values": [
      {"measurement": "IC50", "setting": "[1]", "value": "< 20", "unit": "nM"},
      {"measurement": "IC50", "setting": "[2]", "value": "> 10000", "unit": "nM"},
      {"measurement": "EC50", "setting": "[3]", "value": "< 100", "unit": "nM"},
      {"measurement": "EC50", "setting": "[4]", "value": "< 100", "unit": "nM"},
      {"measurement": "IC50", "setting": "[5]", "value": "≥ 10000", "unit": "nM"}
    ]},
    {"molecule": "CC(F)(F)C(=O)N[C@H](C(=O)N1C[C@H]2[C@@H]([C@H]1C(=O)N[C@H](C#N)C[C@@H]1CCNC1=O)[C@H]1C=C[C@@H]2C1)C(C)(C)C", "note": "[Compound 73]", "values": [
      {"measurement": "IC50", "setting": "[1]", "value": "< 20", "unit": "nM"},
      {"measurement": "IC50", "setting": "[2]", "value": "> 10000", "unit": "nM"},
      {"measurement": "EC50", "setting": "[3]", "value": "< 100", "unit": "nM"},
      {"measurement": "EC50", "setting": "[4]", "value": "< 100", "unit": "nM"},
      {"measurement": "IC50", "setting": "[5]", "value": "≥ 10000", "unit": "nM"}
    ]},
    {"molecule": "CC(C)(C)[C@H](NC(=O)C(F)(F)F)C(=O)N1C[C@H]2[C@@H]([C@H]1C(=O)N[C@H](C#N)C[C@@H]1Oc3ccccc3NC1=O)[C@H]1C=C[C@@H]2C1", "note": "[Compound 52, (1S,3aR,4S,7R,7aS)-N-((S)-1-cyano-2-((S)-3-oxo-3,4-dihydro-2H-benzo[b][1,4]oxazin-2-yl)ethyl)-2-((S)-3,3-dimethyl-2-(2,2,2-trifluoroacetamido)butanoyl)-2,3,3a,4,7,7a-hexahydro-1H-4,7-methanoisoindole-1-carboxamide]", "values": [
      {"measurement": "IC50", "setting": "[1]", "value": "< 20", "unit": "nM"},
      {"measurement": "IC50", "setting": "[2]", "value": "> 10000", "unit": "nM"},
      {"measurement": "EC50", "setting": "[3]", "value": "100 to 1000", "unit": "nM"},
      {"measurement": "EC50", "setting": "[4]", "value": "100 to 1000", "unit": "nM"},
      {"measurement": "IC50", "setting": "[5]", "value": "≥ 10000", "unit": "nM"}
    ]}
  ]
}
